Drawing on US20060003951A1, “Anti-viral 7-deaza L-nucleosides” (Micrologix Biotech Inc., priority 2001, published 2006), this text covers melting point for one compound.

Regarding `Nc1ncnc2c1ccn2[C@@H]1C[C@@H](O)[C@H](CO)O1`, the melting point (in general, the temperature, or range, at which the solid turns liquid) fell in the range of 214.8 to 215.5 °C.
